Data: ChEMBL document CHEMBL3779847, “Altered activity profile of a tertiary silanol analog of multi-targeting nuclear receptor modulator T0901317” (Bioorg Med Chem Lett, 2016)

How the values were obtained:
PXR (NR1I2) = molecular target: T1, PXR (NR1I2) (Homo sapiens, UniProt O75469); assay: Agonist activity at human PXR transfected in HEK293 cells after 24 hrs by luciferase reporter gene assay relative to T0901317; format: cell-based; settings: HEK293 cells transfected with human PXR, read-out: Efficacy
T1 sequence (O75469 whole entry): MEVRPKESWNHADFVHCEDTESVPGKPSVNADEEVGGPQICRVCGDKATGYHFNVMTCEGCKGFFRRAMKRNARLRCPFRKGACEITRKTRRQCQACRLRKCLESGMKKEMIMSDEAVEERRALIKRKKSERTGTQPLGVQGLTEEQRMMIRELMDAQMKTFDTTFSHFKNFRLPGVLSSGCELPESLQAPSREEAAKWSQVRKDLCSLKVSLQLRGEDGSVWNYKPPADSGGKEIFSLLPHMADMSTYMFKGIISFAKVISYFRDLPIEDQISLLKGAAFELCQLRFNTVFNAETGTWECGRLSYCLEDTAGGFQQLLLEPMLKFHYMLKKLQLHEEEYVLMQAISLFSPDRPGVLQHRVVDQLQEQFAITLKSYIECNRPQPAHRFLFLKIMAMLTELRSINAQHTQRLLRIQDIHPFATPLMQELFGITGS

[1] = molecular target: T2, Nuclear receptor ROR-beta (Homo sapiens, UniProt Q92753); assay: Inverse agonist activity at human RORbeta transfected in HEK293 cells after 24 hrs by beta galactosidase luciferase reporter gene assay; format: cell-based
T2 sequence (Q92753 whole entry): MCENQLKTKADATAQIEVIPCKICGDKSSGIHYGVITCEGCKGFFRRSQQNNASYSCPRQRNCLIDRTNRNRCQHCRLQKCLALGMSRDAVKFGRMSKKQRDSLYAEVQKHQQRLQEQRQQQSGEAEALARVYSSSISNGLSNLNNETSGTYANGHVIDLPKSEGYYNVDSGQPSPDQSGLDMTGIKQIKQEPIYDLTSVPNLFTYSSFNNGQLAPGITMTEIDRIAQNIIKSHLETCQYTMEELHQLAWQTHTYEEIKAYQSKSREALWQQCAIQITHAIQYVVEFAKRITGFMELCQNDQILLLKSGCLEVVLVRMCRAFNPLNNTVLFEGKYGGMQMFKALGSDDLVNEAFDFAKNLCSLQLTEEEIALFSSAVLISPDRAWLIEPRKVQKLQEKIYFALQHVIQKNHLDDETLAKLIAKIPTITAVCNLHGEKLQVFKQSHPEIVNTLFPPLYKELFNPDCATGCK

[2] = Octanol-water partition coefficient, log P of the compound by HPLC method; format: physicochemical
[3] = molecular target: T3, Nuclear receptor ROR-alpha (Homo sapiens, UniProt P35398); assay: Inverse agonist activity at human RORalpha transfected in HEK293 cells after 24 hrs by beta galactosidase luciferase reporter gene assay; format: cell-based
T3 sequence (P35398 whole entry): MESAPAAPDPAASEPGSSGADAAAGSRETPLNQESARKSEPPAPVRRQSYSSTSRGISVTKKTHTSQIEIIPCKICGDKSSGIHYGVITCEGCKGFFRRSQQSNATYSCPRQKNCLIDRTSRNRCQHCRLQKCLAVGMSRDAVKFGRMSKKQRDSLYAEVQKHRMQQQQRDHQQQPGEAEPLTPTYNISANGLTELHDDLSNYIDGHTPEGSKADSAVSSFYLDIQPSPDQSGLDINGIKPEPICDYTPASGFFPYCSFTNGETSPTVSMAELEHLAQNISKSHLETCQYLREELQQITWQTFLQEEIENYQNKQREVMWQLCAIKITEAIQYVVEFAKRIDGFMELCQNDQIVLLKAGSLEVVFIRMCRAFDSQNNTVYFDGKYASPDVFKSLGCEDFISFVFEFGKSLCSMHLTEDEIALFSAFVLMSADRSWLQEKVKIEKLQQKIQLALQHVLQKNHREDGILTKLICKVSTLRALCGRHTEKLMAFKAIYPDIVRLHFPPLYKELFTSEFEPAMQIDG

[4] = molecular target: T4, Oxysterols receptor LXR-alpha (Homo sapiens, UniProt Q13133); assay: Agonist activity at human LXRalpha transfected in HEK293 cells after 24 hrs by luciferase reporter gene assay; format: cell-based
T4 sequence (Q13133 whole entry): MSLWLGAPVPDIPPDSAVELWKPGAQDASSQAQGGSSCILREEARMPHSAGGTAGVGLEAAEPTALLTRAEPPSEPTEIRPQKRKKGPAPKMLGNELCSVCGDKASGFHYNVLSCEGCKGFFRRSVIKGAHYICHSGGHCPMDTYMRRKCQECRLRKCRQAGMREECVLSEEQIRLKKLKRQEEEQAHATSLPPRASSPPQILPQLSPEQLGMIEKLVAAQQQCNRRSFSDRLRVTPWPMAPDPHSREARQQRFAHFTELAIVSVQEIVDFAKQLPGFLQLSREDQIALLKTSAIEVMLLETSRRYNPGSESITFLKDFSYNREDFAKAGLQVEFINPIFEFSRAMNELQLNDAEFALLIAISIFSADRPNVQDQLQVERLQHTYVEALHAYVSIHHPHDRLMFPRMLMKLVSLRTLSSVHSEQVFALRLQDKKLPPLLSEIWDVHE

Bile acid receptor [5] = molecular target: T5, Bile acid receptor (Homo sapiens, UniProt Q96RI1); assay: Agonist activity at human FXR transfected in HEK293 cells after 24 hrs by luciferase reporter gene assay; format: cell-based
T5 sequence (Q96RI1 whole entry): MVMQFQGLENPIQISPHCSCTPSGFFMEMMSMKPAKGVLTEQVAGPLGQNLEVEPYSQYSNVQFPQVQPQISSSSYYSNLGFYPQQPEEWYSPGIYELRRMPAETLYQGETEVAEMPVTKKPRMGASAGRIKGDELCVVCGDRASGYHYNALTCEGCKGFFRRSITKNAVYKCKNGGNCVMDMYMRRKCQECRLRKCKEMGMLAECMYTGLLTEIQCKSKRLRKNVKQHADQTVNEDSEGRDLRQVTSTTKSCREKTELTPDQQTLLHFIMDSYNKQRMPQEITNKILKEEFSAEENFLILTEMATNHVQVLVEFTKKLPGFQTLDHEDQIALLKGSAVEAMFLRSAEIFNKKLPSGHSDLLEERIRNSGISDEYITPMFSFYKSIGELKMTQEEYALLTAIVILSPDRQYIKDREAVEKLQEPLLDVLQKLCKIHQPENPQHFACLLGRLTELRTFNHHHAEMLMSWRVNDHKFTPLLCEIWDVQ

[6] = molecular target: T6, Nuclear receptor subfamily 1 group I member 2 (Homo sapiens, UniProt O75469); assay: Agonist activity at human PXR transfected in HEK293 cells after 24 hrs by luciferase reporter gene assay; format: cell-based
T6 sequence (O75469 whole entry): T1 sequence (O75469 whole entry)

[7] = molecular target: T7, Oxysterols receptor LXR-beta (Homo sapiens, UniProt P55055); assay: Agonist activity at human LXRbeta transfected in HEK293 cells after 24 hrs by luciferase reporter gene assay; format: cell-based
T7 sequence (P55055 whole entry): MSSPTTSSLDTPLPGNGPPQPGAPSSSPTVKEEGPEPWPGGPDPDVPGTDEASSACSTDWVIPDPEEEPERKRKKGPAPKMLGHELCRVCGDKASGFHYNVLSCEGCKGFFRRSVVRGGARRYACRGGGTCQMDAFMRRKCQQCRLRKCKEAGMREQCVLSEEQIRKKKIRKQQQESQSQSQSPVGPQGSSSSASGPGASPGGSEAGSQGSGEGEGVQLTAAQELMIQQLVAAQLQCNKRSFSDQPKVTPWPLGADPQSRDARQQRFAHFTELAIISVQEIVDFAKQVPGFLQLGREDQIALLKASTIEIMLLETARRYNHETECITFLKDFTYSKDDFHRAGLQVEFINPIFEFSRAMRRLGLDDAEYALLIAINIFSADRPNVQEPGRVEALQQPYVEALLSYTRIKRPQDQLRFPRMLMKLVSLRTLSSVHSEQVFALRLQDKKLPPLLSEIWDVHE

[8] = molecular target: T8, Nuclear receptor ROR-gamma (Homo sapiens, UniProt P51449); assay: Inverse agonist activity at human RORgamma transfected in HEK293 cells after 24 hrs by beta galactosidase luciferase reporter gene assay; format: cell-based
T8 sequence (P51449 whole entry): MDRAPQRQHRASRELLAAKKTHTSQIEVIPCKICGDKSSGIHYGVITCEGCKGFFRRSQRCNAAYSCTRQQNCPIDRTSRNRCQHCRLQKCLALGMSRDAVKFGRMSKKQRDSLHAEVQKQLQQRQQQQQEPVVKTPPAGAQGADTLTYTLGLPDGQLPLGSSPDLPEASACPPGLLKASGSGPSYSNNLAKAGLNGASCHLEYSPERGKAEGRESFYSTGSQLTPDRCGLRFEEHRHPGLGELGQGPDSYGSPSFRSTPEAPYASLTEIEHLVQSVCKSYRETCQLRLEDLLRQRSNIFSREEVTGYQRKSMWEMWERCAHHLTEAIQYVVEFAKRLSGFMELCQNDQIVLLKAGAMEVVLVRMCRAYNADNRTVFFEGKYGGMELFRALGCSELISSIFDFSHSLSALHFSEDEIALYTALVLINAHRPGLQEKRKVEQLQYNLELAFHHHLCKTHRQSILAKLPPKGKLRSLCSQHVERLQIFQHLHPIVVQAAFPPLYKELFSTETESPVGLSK

[9] = molecular target: T9, Bile acid receptor (Homo sapiens) (UniProt Q96RI1); assay: Partial agonist activity at human FXR transfected in HEK293 cells after 24 hrs by luciferase reporter gene assay relative to T0901317; format: cell-based
T9 sequence (whole entry): T5 sequence (Q96RI1 whole entry)

Bile acid receptor [10] = molecular target: T5, Bile acid receptor; assay: Partial agonist activity at human FXR transfected in HEK293 cells after 24 hrs by luciferase reporter gene assay; format: cell-based

| Emax at 24 h (PXR (NR1I2)) | IC50 ([1]; hek293) | logP [2] | IC50 ([3]; hek293) | EC50 [4] | EC50 (Bile acid receptor [5]) | EC50 ([6]; hek293) | EC50 [7] | IC50 ([8]; hek293) | Efficacy [9] | EC50 ([6]; read-out: EC50) | IC50 ([1]; read-out: IC50) | IC50 ([8]; read-out: IC50) | IC50 ([3]; read-out: IC50) | EC50 (Bile acid receptor [10]) | SMILES |
| --- | --- | --- | --- | --- | --- | --- | --- | --- | --- | --- | --- | --- | --- | --- | --- |
| 75% | – | – | – | – | – | – | – | – | – | – | – | – | – | – | CO[C@H]1/C=C/O[C@@]2(C)Oc3c(C)c(O)c4c(O)c(c(/C=N/N5CCN(C)CC5)c(O)c4c3C2=O)NC(=O)/C(C)=C\C=C\[C@H](C)[C@H](O)[C@@H](C)[C@@H](O)[C@@H](C)[C@H](OC(C)=O)[C@@H]1C [RIFAMPIN] |
| – | Not Active | 5.38 | Not Active | – | – | – | – | – | – | – | – | – | – | – | O=S(=O)(c1ccccc1)N(CC(F)(F)F)c1ccc(C(O)(C(F)(F)F)C(F)(F)F)cc1 [T091317] |
| – | Not Active | 3.7 | Not Active | Not Active | Not Active | Not Active | Not Active | Not Active | – | – | – | – | – | – | CC(C)(O)c1ccc(N(CC(F)(F)F)S(=O)(=O)c2ccccc2)cc1 |
| 61% | – | 4.23 | – | Not Active | – | – | Not Active | – | 23% | 0.88 µM | 60 µM | 43 µM | 53 µM | 11 µM | C[Si](C)(O)c1ccc(N(CC(F)(F)F)S(=O)(=O)c2ccccc2)cc1 |
